Assay results published in PMC6175296 (Clinical Pharmacology and Therapeutics, 2017).
Entries after “also recorded” stand apart in the source; their conditions may differ. Like-named read-outs stand apart in the source and are kept apart here. Blank lines part the entries; values can stand above or below the compound they belong to.

Columns and labels:
CYP2C8 [1] = biological target: T1, CYP2C8 (Homo sapiens, UniProt P10632); test: In vivo CYP2C8 inhibition judged from montelukast pharmacokinetics; conditions: montelukast as CYP2C8 probe substrate
T1 sequence (P10632 1-490): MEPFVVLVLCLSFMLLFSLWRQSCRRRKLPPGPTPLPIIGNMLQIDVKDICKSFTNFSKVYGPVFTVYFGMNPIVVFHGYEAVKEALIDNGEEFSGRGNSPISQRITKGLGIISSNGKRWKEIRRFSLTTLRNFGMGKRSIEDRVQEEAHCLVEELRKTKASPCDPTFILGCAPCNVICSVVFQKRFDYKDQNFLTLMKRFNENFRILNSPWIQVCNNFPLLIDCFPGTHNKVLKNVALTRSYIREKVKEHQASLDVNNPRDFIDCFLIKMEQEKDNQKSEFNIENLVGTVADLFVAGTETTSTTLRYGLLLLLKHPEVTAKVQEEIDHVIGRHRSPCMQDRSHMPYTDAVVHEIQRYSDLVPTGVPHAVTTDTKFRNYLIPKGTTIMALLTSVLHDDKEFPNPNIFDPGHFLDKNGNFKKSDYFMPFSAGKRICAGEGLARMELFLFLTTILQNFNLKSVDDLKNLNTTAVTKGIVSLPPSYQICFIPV

[2] = cited from earlier work
[3] = format: in vivo, humans
[4] = cited from earlier work; remark: listed apart in the source
CYP2C8 [5] = conditions: read-out: CYP2C8 Ki; microsomal protein concentration 0.25 mg/mL; cited from earlier work
[6] = for AUC(0-inf): AUC0–∞; for tmax: median (range)
[7] = cited from earlier work; remark: listed apart in the source
OATP1B1 = conditions: read-out: OATP1B1 Ki; “Clopidogrel 25” model; published value; cited from earlier work
[8] = both, human, plasma, po, 300 mg
[9] = after 60 mg prasugrel oral, day 1, median (range)
[10] = after 300 mg clopidogrel oral, day 1, median (range)

SMILES: COC(=O)[C@H](c1ccccc1Cl)N1CC[C@@H](S)/C(=C\C(=O)O)C1 [Clopidogrel active metabolite]
AUC0-13h [3, 10]: 32.0 (17.0–101) ng·h/mL
Cmax [3, 10]: 23.4 (12.6–80.1) ng/mL
tmax [3, 10]: 0.92 (0.92–1.5) h
t½ [3, 10]: 3.4 (0.84–4.8) h

SMILES: CC(=O)Oc1cc2c(s1)CCN(C(C(=O)C1CC1)c1ccccc1F)C2 (centres unmarked) [Prasugrel]
CYP2C8 inhibition in humans (conclusion) (CYP2C8 [1]): not a clinically relevant CYP2C8 inhibitor; also recorded: not a significant inhibitor of CYP2C8

SMILES: O=C(O)[C@H](c1ccccc1Cl)N1CCc2sccc2C1 [Clopidogrel carboxylic acid]
AUC0-13h [3, 10]: 38,500 (22,000–53,400) ng·h/mL
Cmax [3, 10]: 11,500 (7,410–19,700) ng/mL
tmax [3, 10]: 0.92 (0.92–1.5) h
t½ [3, 10]: 7.3 (5.8–9.2) h

SMILES: CCc1ccc(CCOc2ccc(CC3SC(=O)NC3=O)cc2)nc1 (centres unmarked) [Pioglitazone]
AUC increase by gemfibrozil ([2]; previous studies): about 3 fold
AUC increase by clopidogrel ([2]; previously reported): 2.0–2.1 fold

SMILES: O=C(O)[C@H]1O[C@@H](OC(=O)[C@H](c2ccccc2Cl)N2CCc3sccc3C2)[C@H](O)[C@@H](O)[C@@H]1O [Clopidogrel acyl‐β‐D‐glucuronide]
Ki (OATP1B1): 5.45 µM
AUC0-13h [3, 10]: 16,200 (7,030–34,200) ng·h/mL
Cmax [3, 10]: 3,290 (1,470–9,680) ng/mL
tmax [3, 10]: 1.5 (0.92–3.0) h
t½ [3, 10]: 4.6 (3.9–6.6) h

More lines, main results first:

AUC(0-t) [3, 8]: 13.2 ng·h/mL
Cmax [3, 8]: 3.53 ng/mL
half-life [3, 8]: 4.8 h
tmax [3, 8]: 1.5 h
SMILES: COC(=O)[C@H](c1ccccc1Cl)N1CCc2sccc2C1 [Clopidogrel]
CYP2C8 inhibition in humans (conclusion) (CYP2C8 [1]): at least a moderate inhibitor of CYP2C8; also recorded: weaker CYP2C8 inhibitor than gemfibrozil
clinically relevant inhibition of CYP3A4 or OATP1B1 ([2]; pitavastatin and simvastatin as substrates): not a clinically relevant inhibitor of CYP3A4 or OATP1B1

AUC0-13h [3, 9]: 495 (247–1140) ng·h/mL
Cmax [3, 9]: 240 (105–692) ng/mL
tmax [3, 9]: 0.92 (0.92–1.5) h
t½ [3, 9]: 7.1 (6.0–9.2) h
SMILES: O=C1C=C2CN(C(C(=O)C3CC3)c3ccccc3F)CCC2S1 (centres unmarked) [Prasugrel inactive metabolite (R‐95913)]

AUC(0-inf) ([6]; both, human, plasma, oral, 10 mg, placebo phase, geometric mean (geometric CV)): 3020 ng·h/mL
tmax ([6]; both, human, plasma, oral, 10 mg, placebo phase): 3.5 h
AUC(0-inf) ([6]; both, human, plasma, oral, clopidogrel phase, geometric mean (geometric CV)): 5990 ng·h/mL
AUC(0-inf) ([6]; both, human, plasma, oral, prasugrel phase, geometric mean (geometric CV)): 2800 ng·h/mL
tmax ([6]; both, human, plasma, oral, clopidogrel phase): 4.5 h
tmax ([6]; both, human, plasma, oral, prasugrel phase): 3 h
half-life ([6]; both, human, plasma, oral, t½, clopidogrel phase, geometric mean (geometric CV)): 8.2 h
t½ ([6]; placebo phase, geometric mean (geometric CV)): 4.51 (18) h
prolongation in t½ ([6]; prasugrel phase vs placebo): 15%
t½ prolongation by prasugrel ([6]; prasugrel phase vs placebo): 1.15 fold
t½ ([6]; prasugrel phase, geometric mean (geometric CV)): 5.16 (20) h
SMILES: CC(C)(O)c1ccccc1CC[C@@H](SCC1(CC(=O)O)CC1)c1cccc(/C=C/c2ccc3ccc(Cl)cc3n2)c1 [Montelukast]
oral bioavailability [4]: 60–70%
AUC increase by clarithromycin [2]: 2.4 fold
CYP2C8 inhibition in humans [2]: not a significant inhibitor of CYP2C8
decrease in exposure by fluconazole [2]: 30–40%
bound to plasma proteins [7]: about 99.8%

AUC0-13h [3, 9]: 495 (249–1090) ng·h/mL
Cmax [3, 9]: 428 (210–865) ng/mL
tmax [3, 9]: 0.92 (0.92–0.92) h
t½ [3, 9]: 3.9 (3.2–5.5) h
SMILES: O=C(O)/C=C1/CN(C(C(=O)C2CC2)c2ccccc2F)CCC1S (centres unmarked) [Prasugrel active metabolite (R‐138727)]
